≈ marks a conversion by molar mass, not a printed value. Read-outs that look alike come from different tables or passages of the source. Square brackets hold non-standard residues; d marks the D form. Peptide text beside a SMILES is read from it. Gly(N(CH2)2(3-indolyl)) = O=C(O)CNCCc1c[nH]c2ccccc12; Nspe = C[C@H](NCC(=O)O)c1ccccc1; Nlys = NCCCCNCC(=O)O
What was measured:
E. coli ATCC 25922 = assay type: cell-based, Escherichia coli
Method in brief: (§1)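 In cation-adjusted Mueller Hinton broth 2 supplemented with 0.02% BSA and 0.001% acetic acid, about 2–5 × 10^5 CFU mL^−1 bacteria met peptoid at 25 µM and five lower two-fold dilutions. The MIC is the lowest concentration without turbidity, from triplicate determinations.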

[1] = Analytical reversed-phase HPLC elution (hydrophobicity); assay type: physicochemical; details: Table 1; analytical RP-HPLC, SunFire C18 […] 250 mm, water/ACN + 0.1% TFA, 5% B 2 min then linear to 100% B over 30 min, 1 mL/min, UV 220 nm; used as measure of hydrophobicity
Method in brief: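 Retention time (tR) reflects hydrophobicity, with detection at 220 nm. Elution used a 5–100% acetonitrile linear gradient over 30 min after a 2 min hold at 5%, then 5 min at 100%, with both phases containing 0.1% TFA. Column was an analytical C18 (4.6 × 250 mm, 5 μm) run at 1 mL/min.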

S. typhimurium SL 1344 = assay type: cell-based
E. faecium KCTC 13225 = assay type: cell-based
E. coli ML-35 cells = test: ONPG hydrolysis assay (inner membrane); assay type: cell-based; details: 1.5 mM ONPG, 10 mM sodium phosphate pH 7.4, absorbance 405 nm
Method: The permeability of the inner membrane was determined using E. coli ML-35 cells […]
The intact bacterial inner membrane is non-permeable to o-nitrophenyl-β-D-galactopyranoside (OPNG), a chromogenic substrate of the β-galactosidase.
Following damage to the inner membrane, OPNG enters the cells and is metabolized by β-galactosidase creating a chromogenic […]. E. coli cells were washed in 10 mM sodium phosphate (pH 7.4) containing 100 mM NaCl and resuspended in the same buffer at a final concentration of OD600 = 0.5 containing 1.5 mM ONPG. The hydrolysis of ONPG and generation of o-nitrophenol over time were monitored as absorbance change at 405 nm following the addition of peptoids. […]

P. aeruginosa KCTC 1637 = assay type: cell-based
E. faecalis KCTC 3511 = assay type: cell-based
S. aureus ATCC 25923 = assay type: cell-based, Staphylococcus aureus
Method in brief: as §1

rat erythrocytes = test: Hemolysis assay; assay type: cell-based
Method in brief: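 Washed Sprague-Dawley rat erythrocytes (10% suspension in PBS pH 7.4) mixed with peptoids (0–100 µM), 60 min at 37 °C; supernatant A540 expressed as % of 1% Triton X-100 lysis. HC10/HC50 are concentrations giving 10%/50% hemolysis; Hmax is hemolysis at 100 µM.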

[2] = Table S2, broth dilution, MHB2, 37 °C 24 h, max 25 µM, mean of triplicate
[3] = Table S3, counter-ion exchange series (TFA, HCl, AcOH salts), mean of triplicate
[4] = gram-positive pathogenic strain, mean of triplicates
[5] = Table S3, counter-ion exchange series, mean of triplicate

Compound	MIC E. coli ATCC25922 (E. coli ATCC 25922; [2]) [µM]	MIC E. coli ATCC25922 (E. coli ATCC 25922; [3]) [µM]	HPLC elution (%ACN) [1] [%ACN]	inner membrane disruption (ONPG hydrolysis) (E. coli ML-35 cells)	MIC S. aureus ATCC25923 (S. aureus ATCC 25923; [2]) [µM]	MIC S. aureus ATCC25923 (S. aureus ATCC 25923; [5]) [µM]	MIC S. typhimurium SL 1344 (S. typhimurium SL 1344; SL 1344) [µM]	MIC E. faecium KCTC 13225 (E. faecium KCTC 13225; KCTC 13225) [µM]	MIC P. aeruginosa KCTC 1637 (P. aeruginosa KCTC 1637; KCTC 1637) [µM]	MIC E. faecalis KCTC 3511 (E. faecalis KCTC 3511; KCTC 3511) [µM]	H max (100 µM) (rat erythrocytes) [%]	HC10 (rat erythrocytes; pH 7.4) [µM]	HC50 (rat erythrocytes; pH 7.4) [µM]	HC10 (rat erythrocytes; red cells of rat) [µM]	other results
C[C@@H](c1ccccc1)N(CC(N)=O)C(=O)CN(C(=O)CN(CCCCN)C(=O)CN(C(=O)CN(C(=O)CN(CCCCN)C(=O)CN(C(=O)CN(C(=O)CN(CCCCN)C(=O)CN(C(=O)CN(C(=O)CNCCCCN)[C@@H](C)c1ccccc1)[C@@H](C)c1ccccc1)[C@@H](C)c1ccccc1)[C@@H](C)c1ccccc1)[C@@H](C)c1ccccc1)[C@@H](C)c1ccccc1)[C@@H](C)c1ccccc1 [peptoid 1, reference compound] (H-[Nlys][Nspe][Nspe][Nlys][Nspe][Nspe][Nlys][Nspe][Nspe][Nlys][Nspe][Nspe]-NH2)	6.3 (≈ 11.5 µg/mL)	6.3	54.5	strongly disrupted	1.6 (≈ 2.91 µg/mL)	1.6 (≈ 2.91 µg/mL)									MIC S. typhimurium SL 1344 (S. typhimurium SL 1344; gram-negative pathogenic strain, mean of triplicates): 25 µM (≈ 45.5 µg/mL); MIC E. faecium KCTC 13225 (E. faecium KCTC 13225; [4]): <0.8 µM; MIC P. aeruginosa KCTC 1637 (P. aeruginosa KCTC 1637; gram-negative pathogenic strain, maintained in refined LB media, mean of triplicates): 6.3 µM (≈ 11.5 µg/mL); MIC E. faecalis KCTC 3511 (E. faecalis KCTC 3511; [4]): 0.8 µM (≈ 1.46 µg/mL); HC10 (rat erythrocytes; Table S2, 10% hemolysis in rat erythrocytes, PBS pH 7.4, 37 °C 60 min, mean of triplicate): 8.3 µM; HC50 (rat erythrocytes; Table S2, 50% hemolysis in rat erythrocytes, PBS pH 7.4, 37 °C 60 min, mean of triplicate): 22.9 µM; HC10 (rat erythrocytes; Table S3, counter-ion exchange series, 10% hemolysis in rat erythrocytes, mean of triplicate): 15.9 µM; HC50 (rat erythrocytes; Table S3, counter-ion exchange series, 50% hemolysis in rat erythrocytes, mean of triplicate): 49.0 µM; Hmax (100 µM) (rat erythrocytes; Table S3, counter-ion exchange series, hemolysis at 100 µM): 72.1±2.1%; H max (100 µM) (rat erythrocytes; percentage of hemolysis at the highest concentration tested (100 µM), rat erythrocytes): 112.3 ± 0.7%
C[C@@H](c1ccccc1)N(CC(=O)N(CCCCN)CC(=O)N(CC(=O)N(CC(=O)N(CCCCN)CC(=O)N(CC(=O)N(CC(=O)N(CCCCN)CC(=O)N(CCc1c[nH]c2ccccc12)CC(=O)N(CCc1c[nH]c2ccccc12)CC(N)=O)[C@@H](C)c1ccccc1)[C@@H](C)c1ccccc1)[C@@H](C)c1ccccc1)[C@@H](C)c1ccccc1)C(=O)CN(C(=O)CNCCCCN)[C@@H](C)c1ccccc1 [peptoid 11] (H-[Nlys][Nspe][Nspe][Nlys][Nspe][Nspe][Nlys][Nspe][Nspe][Nlys][Gly(N(CH2)2(3-indolyl))][Gly(N(CH2)2(3-indolyl))]-NH2)	6.3 (≈ 12 µg/mL)		54.0	strongly disrupted	1.6 (≈ 3.04 µg/mL)	1.6 (≈ 3.04 µg/mL)	25 (≈ 47.4 µg/mL)	<0.8	3.1 (≈ 5.88 µg/mL)	<0.8	103.4 ± 3.2	8.3	22.2	6.9	MIC E. coli ATCC25922 (E. coli ATCC 25922; ATCC 25922): 3.1 µM (≈ 5.88 µg/mL); Hmax (100 µM) (rat erythrocytes): 111.9±2.7%; HC50 (rat erythrocytes; red cells of rat): 27.5 µM
C[C@@H](c1ccccc1)N(CC(=O)N(CCCCN)CC(=O)N(CCc1c[nH]c2ccccc12)CC(=O)N(CCc1c[nH]c2ccccc12)CC(N)=O)C(=O)CN(CCCCN)C(=O)CN(CCCCN)C(=O)CN(C(=O)CN(C(=O)CN(CCCCN)C(=O)CN(C(=O)CN(C(=O)CNCCCCN)[C@@H](C)c1ccccc1)[C@@H](C)c1ccccc1)[C@@H](C)c1ccccc1)[C@@H](C)c1ccccc1 [peptoid 29] (H-[Nlys][Nspe][Nspe][Nlys][Nspe][Nspe][Nlys][Nlys][Nspe][Nlys][Gly(N(CH2)2(3-indolyl))][Gly(N(CH2)2(3-indolyl))]-NH2)	6.3 (≈ 11.7 µg/mL)	6.3	48.6	lower than that seen with more hydrophobic peptoids	6.3 (≈ 11.7 µg/mL)		6.3 (≈ 11.7 µg/mL)	1.6 (≈ 2.98 µg/mL)	3.1 (≈ 5.78 µg/mL)	3.1 (≈ 5.78 µg/mL)	9.8 ± 1.8	> 100	> 100	88.6	MIC E. coli ATCC25922 (E. coli ATCC 25922; broth dilution, MHB2 with 0.001% acetic acid and 0.02% BSA, 2–5 × 10^5 CFU/mL, 37 °C 24 h, max 25 µM, mean of triplicates): 6.3 µM (≈ 11.7 µg/mL); MIC S. aureus ATCC25923 (S. aureus ATCC 25923; ATCC 25923): 12.5 µM (≈ 23.3 µg/mL); HC50 (rat erythrocytes): > 100 µM
